Test results taken from patent US12692221B2 (priority 2024, dated 2026).
Values after ≈ are worked out from the molar mass of the structure shown. “Also recorded” adds a separate entry of the source.

Columns and labels:
5-HT2A [1] = target: T1, 5-HT2A (Homo sapiens, UniProt P28223); assay: IP-One HTRF IP-1 accumulation functional assay, 5-HT2A-expressing HEK293; assay type: cell-based; parameters: host or cells: HEK293
Procedure: Methods (5-HT2A and 5-HT2C IP-One Functional Activity Assays): Intracellular accumulation of IP-1 was measured using an IP-One HTRF assay kit (Cat. #62IPAPEJ, Cisbio) at WuXi AppTec Co. Ltd. (Hong Kong) Discovery Biology Unit according to their standard protocols. Briefly, the reference compounds and screening compounds were 3.16-fold serially diluted in 100% DMSO for 10 points using Bravo. 70 nL of compounds were added to the assay plate using Echo555. Added 14 μL/7500 cells/well of 5-HT2A-expressing HEK293 or 5-HT2C-expressing HEK293 to the assay plate and incubate for 60 min at 37° C. Added 3 μL of IP-1 d2 Reagent working solution and 3 μL of IP-1 Tb Cryptate Antibody working solution to all wells. The plates were incubated for 1 hour at room temperature and read for fluorescence at 620 nm and 665 nm on an EnVision Multimode Plate Reader (PerkinElmer). The ratio of the acceptor and donor emission signals (665/620) were calculated for each individual well and substituted into the standard curve to obtain the log concentration of IP level. After converting to the antilog base IP-1, the average background control signal was subtracted from each well and values were normalized to the maximal response of 5-HT at 3 μM (100%). % MAX was calculated by taking the average normalized maximal response for each compound at the highest concentration tested. The data were analyzed using the four-parameter nonlinear regression curve-fitting function in GraphPad Prism 5 (GraphPad Software, San Diego, CA) to generate potency (EC50) values. The represented plots show normalized IP-1 values versus compound concentrations; the corresponding numerical data are parameter estimates for the concentration-response curve using the four-parameter nonlinear regression curve-fitting function in GraphPad Prism 10.

5-HT2B [2] = target: T2, 5-HT2B (Homo sapiens, UniProt P41595); assay: IP-One HTRF IP-1 accumulation functional assay, 5-HT2B/HEK293; assay type: cell-based; parameters: host or cells: HEK293
Procedure: Methods (5-HT2B IP-One Functional Activity Assays): Intracellular accumulation of IP-1 was measured using an IP-One HTRF) assay kit (Cat. #62IPAPEJ, Cisbio) at WuXi AppTec Co. Ltd. (Hong Kong) Discovery Biology Unit according to their standard protocols. Briefly, 5-HT2B/HEK293 were plated in a 384-well plate and incubated at 37° C. and 5% CO2 overnight. The reference compounds and screening compounds were 3.16-fold serially diluted in 100% DMSO for 10 points using Bravo. 70 nL of compounds were added to the cell plate using Echo555. Incubated for 60 minutes at 37° C. Added 3 μL of IP-1 d2 Reagent working solution and 3 μL of IP-1 Tb Cryptate Antibody working solution to all wells. The plates were incubated for 1 hour at room temperature and read on for fluorescence at 620 nm and 665 nm on an EnVision Multimode Plate Reader (PerkinElmer). The ratio of the acceptor and donor emission signals (665/620) were calculated for each individual well and substituted into the standard curve to obtain the log concentration of IP level. After converting to the antilog base IP-1, the average background control signal was subtracted from each well and values were normalized to the maximal response of 5-HT at 3 μM (100%). % MAX was calculated by taking the average normalized maximal response at the highest concentration tested. Data were analyzed using the four-parameter nonlinear regression curve-fitting function in GraphPad Prism 5 (GraphPad Software, San Diego, CA) to generate potency (EC50) values. Parameter constraint “Top=100” was used in the analysis of 5-HT2B IP-1. Represented plots show normalized IP-1 values versus compound concentrations; the corresponding numerical data are parameter estimates for the concentration-response curve using the 4-parameter nonlinear regression curve-fitting function in GraphPad Prism 10. “Top=100” parameter constraint was not enabled for the represented plot analysis.

5-HT2A [3] = target: T1, 5-HT2A; assay: Calcium flux agonist assay, 293T cells; assay type: cell-based; parameters: expressed in transfected cells; host or cells: Human Embryonic Kidney (293T) cells, transient; details: for Emax: HEK-293T, calcium flux, 5-HT2A, normalized to maximum 5-HT response
5-HT2B [4] = target: T2, 5-HT2B; assay: Calcium flux agonist assay, 293T cells; assay type: cell-based; parameters: expressed in transfected cells; host or cells: Human Embryonic Kidney (293T) cells, transient; details: for Emax: HEK-293T, 5-HT2B, normalized to maximum 5-HT response; for Emax / 5-HT2B receptor activation: calcium flux; for 5-HT2B receptor activation: in words
male C57BL/6J mice [5] = assay: Mouse head-twitch response (HTR) assay, magnetometer; assay type: in vivo; details: for HTR (head twitch response), in words: i.p., doses up to 30 mpk
male C57BL/6J mice [6] = assay: Motor activity / distance traveled measured in parallel with HTR; assay type: in vivo, mouse; details: i.p.; for motor activity, in words: magnetometer activity
[7] = Aqueous solubility by sequential dilution in water, microscopic inspection; details: water, thermodynamic from solid
[8] = Photoabsorption 290-700 nm, molar extinction coefficient (photoliability); assay type: physicochemical; details: wavelength of maximal absorption between 290 nm and 700 nm
5-HT2A (h) = target: T3, 5-HT2A (h) (Homo sapiens, UniProt P28223); assay: Radioligand binding 5-HT2A (h) (agonist radioligand), [^125I](±)DOI, HEK-293 cells; details: 5-HT2A, Hill coefficient
T3 construct: host or cells: HEK-293 cells

5-HT2B (h) = target: T4, 5-HT2B (h) (Homo sapiens, UniProt P41595); assay: Radioligand binding 5-HT2B (h) (agonist radioligand), [^125I](±)DOI, CHO cells
T4 construct: host or cells: CHO cells

5-HT2C (h) = target: T5, 5-HT2C (h) (Homo sapiens, UniProt P28335); assay: Radioligand binding 5-HT2C (h) (agonist radioligand), [^125I](±)DOI, HEK-293 cells
T5 construct: host or cells: HEK-293 cells
T5 sequence (P28335 33-458): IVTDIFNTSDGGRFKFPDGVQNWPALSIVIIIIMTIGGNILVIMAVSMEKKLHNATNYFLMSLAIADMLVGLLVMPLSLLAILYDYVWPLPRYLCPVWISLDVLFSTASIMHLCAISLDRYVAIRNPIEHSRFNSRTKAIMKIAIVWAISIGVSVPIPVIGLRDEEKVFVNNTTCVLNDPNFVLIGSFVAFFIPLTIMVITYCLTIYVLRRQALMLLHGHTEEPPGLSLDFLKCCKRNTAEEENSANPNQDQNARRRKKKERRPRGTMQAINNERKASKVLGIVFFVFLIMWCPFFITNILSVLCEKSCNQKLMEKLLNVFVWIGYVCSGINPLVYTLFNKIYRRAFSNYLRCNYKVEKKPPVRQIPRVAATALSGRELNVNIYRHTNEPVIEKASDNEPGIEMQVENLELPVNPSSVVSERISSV

T1 sequence (P28223 whole entry, looked up): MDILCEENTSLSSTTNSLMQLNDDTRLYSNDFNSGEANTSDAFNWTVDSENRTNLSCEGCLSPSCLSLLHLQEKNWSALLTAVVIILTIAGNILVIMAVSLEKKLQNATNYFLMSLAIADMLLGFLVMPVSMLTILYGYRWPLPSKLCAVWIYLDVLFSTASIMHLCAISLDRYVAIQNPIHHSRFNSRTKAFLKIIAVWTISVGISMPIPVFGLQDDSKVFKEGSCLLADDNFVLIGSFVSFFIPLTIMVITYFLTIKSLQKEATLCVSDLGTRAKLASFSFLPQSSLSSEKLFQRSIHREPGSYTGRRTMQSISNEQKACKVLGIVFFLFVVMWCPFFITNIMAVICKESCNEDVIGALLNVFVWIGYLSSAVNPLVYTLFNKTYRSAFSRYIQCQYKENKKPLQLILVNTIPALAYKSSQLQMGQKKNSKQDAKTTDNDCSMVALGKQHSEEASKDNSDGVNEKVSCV
T4 sequence (P41595 whole entry): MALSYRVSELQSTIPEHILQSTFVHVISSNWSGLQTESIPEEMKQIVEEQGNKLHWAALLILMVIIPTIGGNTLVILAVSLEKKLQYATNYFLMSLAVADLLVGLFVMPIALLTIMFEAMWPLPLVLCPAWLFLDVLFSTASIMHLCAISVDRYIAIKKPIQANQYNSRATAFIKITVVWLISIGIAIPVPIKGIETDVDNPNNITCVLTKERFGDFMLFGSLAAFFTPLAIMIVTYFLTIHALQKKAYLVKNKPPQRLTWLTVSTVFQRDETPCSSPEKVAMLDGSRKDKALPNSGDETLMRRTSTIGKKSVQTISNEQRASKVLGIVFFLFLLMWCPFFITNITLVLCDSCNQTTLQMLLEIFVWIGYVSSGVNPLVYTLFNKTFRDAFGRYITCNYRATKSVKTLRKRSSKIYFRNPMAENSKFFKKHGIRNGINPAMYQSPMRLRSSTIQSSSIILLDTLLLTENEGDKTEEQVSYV
T2 sequence (P41595 whole entry): as above
T3 sequence (P28223 whole entry, looked up): as the sequence (P28223 whole entry, looked up) above

SMILES | EC50 (5-HT2A [1]) | EC50 (5-HT2B [2]) | EC50 (5-HT2A [3]) | Emax (5-HT2A [3]) | EC50 (5-HT2B [4]) | Emax (5-HT2B [4]) | 5-HT2B receptor activation (5-HT2B [4]) | ED50 (male C57BL/6J mice [5]; Mus musculus, ip, non-linear regression) | HTR (head twitch response), in words (male C57BL/6J mice [5]) | motor activity ID50 (male C57BL/6J mice [6]) | motor activity, in words (male C57BL/6J mice [6]) | solubility [7] | MEC [8] | nH (5-HT2A (h)) | IC50 (5-HT2B (h)) | Ki (5-HT2B (h)) | nH (5-HT2B (h); 5-HT2B, Hill coefficient) | Ki (5-HT2C (h)) | nH (5-HT2C (h); 5-HT2C, Hill coefficient)
COc1cc(CCN)c(OC)cc1Br [Compound 2C-B, reference compound] | 20.9 nM | 232 nM | 0.62 nM | 105% | 9.98 nM | 92.7% | near maximal activation |  |  |  |  |  |  |  |  |  |  |  | 
COc1cc(CC(C)C)c(OC)cc1CCN [Compound 2C-iBu, reference compound] |  |  | 21.9 nM | 92.6% | 22.3 nM | 89.1% | near maximal activation | 0.42 mg/kg | produced clear HTR time-course and inverted U-shape dose-response patterns; also recorded: induced HTR activity | 2 mpk | modest but statistically significant effect on motor suppression at the doses of 3 and 10 mpk | 31.2 mM (≈ 7400 µg/mL) |  |  |  |  |  |  | 
COc1cc(CC(C)C)c(CO)cc1CCN [Compound 2CiBu-5HM, [5-(2-Aminoethyl)-2-isobutyl-4-methoxy-phenyl]methanol] | 466 nM | 1120 nM |  |  |  |  |  |  |  |  |  | 44.4 mM (≈ 10500 µg/mL) | 340.7 L/mol/cm |  |  |  |  |  | 
COc1cc(C[C@@H](C)N)c(OC)cc1I [R-DOI, (−)-R-2,5-dimethoxy-4-iodo-amphetamine, reference compound] |  |  |  |  |  |  |  |  | induced HTR that gradually increased over time |  | increase in motor activity |  |  | 0.7 | 2.3 nM | 1.2 nM | 0.7 | 0.4 nM | 1.0
